# Results reported in ChEMBL document CHEMBL2202996, “Synthesis, evaluation, and radiolabeling of new potent positive allosteric modulators of the metabotropic glutamate receptor 2 as potential tracers for positron emission tomography imaging” (J Med Chem, 2012).
# Columns and labels:
# [1] = biological target: T1, Sodium-dependent dopamine transporter (Homo sapiens, UniProt Q01959); assay: Binding affinity to DAT
# D(1A) dopamine receptor [2] = biological target: T2, D(1A) dopamine receptor (Homo sapiens, UniProt P21728); assay: Binding affinity to dopamine D1 receptor
# [3] = biological target: T1, Sodium-dependent dopamine transporter; assay: Binding affinity to DAT at 10 uM by CEREP assay
# D(1A) dopamine receptor [4] = biological target: T2, D(1A) dopamine receptor; assay: Binding affinity to dopamine D1 receptor at 10 uM by CEREP assay
# [5] = Fraction unbound in human plasma; assay type: ADME, cell-free
# [6] = Fraction unbound in rat plasma; assay type: ADME, cell-free
# Liver microsomes [7] = assay: Drug metabolism in rat liver microsomes assessed as M+O oxidative metabolite; assay type: ADME, Microsome
# Liver microsomes [8] = assay: Drug metabolism in human liver microsomes assessed as M+O oxidative metabolite; assay type: ADME, Microsome
# Liver microsomes [9] = assay: Drug metabolism in rat liver microsomes assessed as O-methylated compound derivative; assay type: ADME, Microsome
# Liver microsomes [10] = assay: Drug metabolism in human liver microsomes assessed as O-methylated compound derivative; assay type: ADME, Microsome
# CHO [11] = assay: Selectivity ratio for rat mGluR6 to human mGluR2 expressed in CHO cell membranes; assay type: cell-based
# CHO [12] = assay: Selectivity ratio for human mGluR4 to human mGluR2 expressed in CHO cell membranes; assay type: cell-based
# HEK293 [13] = assay: Selectivity ratio for human mGluR8 expressed in HEK293 cells to human mGluR2 expressed in CHO cell membranes; assay type: cell-based
# HEK293 [14] = assay: Selectivity ratio for human mGluR7 expressed in HEK293 cells to human mGluR2 expressed in CHO cell membranes; assay type: cell-based
# HEK293 [15] = assay: Selectivity ratio for human mGluR5 expressed in HEK293 cells to human mGluR2 expressed in CHO cell membranes; assay type: cell-based
# HEK293 [16] = assay: Selectivity ratio for human mGluR3 expressed in HEK293 cells to human mGluR2 expressed in CHO cell membranes; assay type: cell-based
# HEK293 [17] = assay: Selectivity ratio for human mGluR1 expressed in HEK293 cells to human mGluR2 expressed in CHO cell membranes; assay type: cell-based
# [18] = Ratio of drug level in brain to plasma of Wistar rat brain at 0.63 mg/kg, iv; assay type: ADME, organism-based; design: dose 0.63 mg/kg, route intravenous; conditions: read-out: BPR
# [19] = Cmax in Wistar rat brain at 0.63 mg/kg, iv after 5 mins; assay type: ADME, organism-based; design: dose 0.63 mg/kg, route intravenous
# [20] = Drug level in Wistar rat brain at 0.63 mg/kg, iv after 1 hr; assay type: ADME, organism-based; design: dose 0.63 mg/kg, route intravenous; conditions: read-out: Drug uptake
# [21] = biological target: T3, Metabotropic glutamate receptor 2 (Homo sapiens, UniProt Q14416); assay: Displacement of [3H]JNJ-40068782 from human mGLuR2 expressed in CHO cell membrane after 60 mins by liquid scintillation counting; assay type: cell membranes
# Target sequence in this assay (Q14416 whole entry): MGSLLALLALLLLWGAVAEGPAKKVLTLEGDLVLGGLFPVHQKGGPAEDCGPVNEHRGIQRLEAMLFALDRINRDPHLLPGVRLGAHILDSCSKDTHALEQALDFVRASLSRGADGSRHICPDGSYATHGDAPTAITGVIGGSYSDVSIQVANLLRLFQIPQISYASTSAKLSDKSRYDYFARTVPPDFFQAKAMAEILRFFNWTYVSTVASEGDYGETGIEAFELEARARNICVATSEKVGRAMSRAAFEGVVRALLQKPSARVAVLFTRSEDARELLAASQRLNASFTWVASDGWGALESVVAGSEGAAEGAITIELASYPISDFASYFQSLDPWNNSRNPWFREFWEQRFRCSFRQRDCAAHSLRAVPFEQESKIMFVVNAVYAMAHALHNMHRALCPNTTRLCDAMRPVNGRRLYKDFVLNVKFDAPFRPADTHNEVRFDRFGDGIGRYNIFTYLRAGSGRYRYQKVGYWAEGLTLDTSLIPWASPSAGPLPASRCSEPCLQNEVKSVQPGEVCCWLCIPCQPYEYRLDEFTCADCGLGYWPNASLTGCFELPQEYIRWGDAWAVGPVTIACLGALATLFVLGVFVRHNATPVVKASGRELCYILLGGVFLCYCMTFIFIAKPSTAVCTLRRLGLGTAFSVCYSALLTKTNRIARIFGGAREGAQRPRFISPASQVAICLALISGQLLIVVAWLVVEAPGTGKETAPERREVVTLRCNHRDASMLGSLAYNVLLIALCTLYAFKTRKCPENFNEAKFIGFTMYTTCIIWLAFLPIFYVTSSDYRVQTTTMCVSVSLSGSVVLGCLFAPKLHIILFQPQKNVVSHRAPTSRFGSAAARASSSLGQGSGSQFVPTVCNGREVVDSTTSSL
# [22] = biological target: T3, Metabotropic glutamate receptor 2; assay: Agonist activity at human mGLuR2 expressed in CHO cell membrane assessed as […] after 30 mins by scintillation counting relative to control; assay type: functional, cell membranes
# Target sequence in this assay (Q14416 19-872 limits assumed): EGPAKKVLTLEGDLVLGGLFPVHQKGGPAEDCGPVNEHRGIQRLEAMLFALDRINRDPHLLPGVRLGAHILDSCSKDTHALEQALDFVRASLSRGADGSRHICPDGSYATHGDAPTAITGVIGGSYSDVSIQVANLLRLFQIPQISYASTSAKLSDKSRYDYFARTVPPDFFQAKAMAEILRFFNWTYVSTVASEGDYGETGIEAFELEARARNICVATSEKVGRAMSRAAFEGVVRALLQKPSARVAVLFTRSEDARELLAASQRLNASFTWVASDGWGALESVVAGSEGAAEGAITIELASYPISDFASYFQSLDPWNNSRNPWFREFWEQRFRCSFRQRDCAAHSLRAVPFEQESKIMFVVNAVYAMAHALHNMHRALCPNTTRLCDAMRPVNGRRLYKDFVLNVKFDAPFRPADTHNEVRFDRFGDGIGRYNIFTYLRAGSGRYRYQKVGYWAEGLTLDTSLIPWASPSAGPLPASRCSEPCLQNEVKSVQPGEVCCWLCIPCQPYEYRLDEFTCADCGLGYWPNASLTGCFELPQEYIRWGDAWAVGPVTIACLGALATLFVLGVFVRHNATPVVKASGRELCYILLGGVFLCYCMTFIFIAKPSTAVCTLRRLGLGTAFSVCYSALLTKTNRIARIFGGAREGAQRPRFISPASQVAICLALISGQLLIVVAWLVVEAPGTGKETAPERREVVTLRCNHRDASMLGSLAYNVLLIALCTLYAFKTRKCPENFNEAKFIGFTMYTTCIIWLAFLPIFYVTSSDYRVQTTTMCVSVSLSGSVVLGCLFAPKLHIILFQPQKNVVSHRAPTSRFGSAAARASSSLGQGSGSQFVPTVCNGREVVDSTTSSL
# [23] = biological target: T3, Metabotropic glutamate receptor 2; assay: Agonist activity at human mGLuR2 expressed in CHO cell membrane assessed as […] after 30 mins by scintillation counting; assay type: functional, cell membranes; conditions: read-out: EC50
# Target sequence in this assay (Q14416 whole entry): as the sequence (Q14416 whole entry) above
# T2 sequence (P21728 whole entry): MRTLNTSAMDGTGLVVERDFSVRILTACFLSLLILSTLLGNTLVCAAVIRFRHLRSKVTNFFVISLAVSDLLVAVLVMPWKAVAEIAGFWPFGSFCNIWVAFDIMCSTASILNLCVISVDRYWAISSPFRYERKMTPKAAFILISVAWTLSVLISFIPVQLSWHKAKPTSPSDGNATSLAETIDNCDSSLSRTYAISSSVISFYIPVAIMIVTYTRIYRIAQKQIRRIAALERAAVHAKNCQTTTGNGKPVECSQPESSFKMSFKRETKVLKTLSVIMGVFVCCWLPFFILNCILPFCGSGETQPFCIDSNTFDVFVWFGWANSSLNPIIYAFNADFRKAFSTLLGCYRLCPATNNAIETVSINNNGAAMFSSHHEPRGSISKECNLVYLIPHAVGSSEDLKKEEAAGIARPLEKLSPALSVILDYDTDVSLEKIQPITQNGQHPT
# T1 sequence (Q01959 whole entry): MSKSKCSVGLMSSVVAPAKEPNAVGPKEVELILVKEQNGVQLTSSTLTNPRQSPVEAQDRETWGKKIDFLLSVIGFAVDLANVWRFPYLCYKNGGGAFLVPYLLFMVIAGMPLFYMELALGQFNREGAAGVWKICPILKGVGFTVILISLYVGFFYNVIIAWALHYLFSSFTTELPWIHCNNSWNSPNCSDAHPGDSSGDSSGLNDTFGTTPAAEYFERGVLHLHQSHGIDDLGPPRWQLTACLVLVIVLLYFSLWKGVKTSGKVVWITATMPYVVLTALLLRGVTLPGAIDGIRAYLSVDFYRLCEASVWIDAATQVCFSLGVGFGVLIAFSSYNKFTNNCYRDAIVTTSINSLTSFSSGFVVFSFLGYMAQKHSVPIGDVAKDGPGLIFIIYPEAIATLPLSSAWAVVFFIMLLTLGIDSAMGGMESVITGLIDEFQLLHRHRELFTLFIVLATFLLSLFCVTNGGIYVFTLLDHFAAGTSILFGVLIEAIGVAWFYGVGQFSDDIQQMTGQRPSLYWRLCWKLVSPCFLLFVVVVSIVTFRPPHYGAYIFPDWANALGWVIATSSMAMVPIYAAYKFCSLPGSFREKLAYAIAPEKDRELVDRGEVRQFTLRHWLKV
smiles,measurement,setting,value
COc1ccc(F)cc1C1CCN(c2ccn3c(CC4CC4)nnc3c2Cl)CC1,Ki,[1],5010 nM
same,Ki,D(1A) dopamine receptor [2],≥ 6200 nM
same,Activity,[3],83%
same,Activity,D(1A) dopamine receptor [4],71%
same,fraction unbound,[5],< 0.01
same,fraction unbound,[6],< 0.01
same,Drug metabolism,Liver microsomes [7],Active
same,Drug metabolism,Liver microsomes [8],Active
same,Drug metabolism,Liver microsomes [9],Active
same,Drug metabolism,Liver microsomes [10],Active
same,Selectivity ratio,CHO [11],> 350
same,Selectivity ratio,CHO [12],> 350
same,Selectivity ratio,HEK293 [13],> 350
same,Selectivity ratio,HEK293 [14],> 350
same,Selectivity ratio,HEK293 [15],> 350
same,Selectivity ratio,HEK293 [16],40
same,Selectivity ratio,HEK293 [17],> 350
same,Kp,[18],1.1
same,Cmax,[19],316 ng/g
same,concentration at 1 h,[20],50 ng/g
same,IC50,[21],11.2 nM
same,Emax,[22],283%
same,EC50,[23],8.2 nM
